Test results taken from PubChem BioAssay AID330 (DTP/NCI, 2004).
Inconclusive results and toxic doses are left out. The calls were made as follows: active = survival T/C of 150% or more; inactive = T/C below 125% in these data.

Test system: P388 leukemia ip, CD2F1 mice, survival T/C
Experiment: NCI In Vivo Anticancer Drug Screen. Data for tumor model P388 Leukemia (intraperitoneal) in CD2F1 (CDF1) mice
Conditions: endpoint: median survival time, higher = longer survival
Procedure: The antitumor activity of compounds was measured in mice bearing transplantable tumors. Survival or tumor size were measured and the results are expressed as the measurement made in the treated group (T) divided by the measurement made in the vehicle treated control group (C). The tumor model used in this assay is P388 Leukemia (intraperitoneal) in CD2F1 (CDF1) mice

[1] = dose: 60.0 mg/kg/injection, schedule: Q01DX005 (ip), vehicle: saline with Tween-80
[2] = dose: 120.0 mg/kg/injection, schedule: Q01DX005 (ip), vehicle: saline with Tween-80
[3] = dose: 240.0 mg/kg/injection, schedule: Q01DX005 (ip), vehicle: saline with Tween-80
[4] = dose: 100.0 mg/kg/injection, schedule: Q01DX005 (ip), vehicle: saline with Tween-80
[5] = dose: 200.0 mg/kg/injection, schedule: Q01DX005 (ip), vehicle: saline with Tween-80
[6] = dose: 100.0 mg/kg/injection, schedule: Q01DX009 (ip), vehicle: saline with Tween-80
[7] = dose: 100.0 mg/kg/injection, schedule: Q04DX003 (ip), vehicle: saline with Tween-80
[8] = dose: 200.0 mg/kg/injection, schedule: Q01DX009 (ip), vehicle: saline with Tween-80
[9] = dose: 200.0 mg/kg/injection, schedule: Q04DX003 (ip), vehicle: saline with Tween-80
[10] = dose: 400.0 mg/kg/injection, schedule: Q01DX009 (ip), vehicle: saline with Tween-80
[11] = dose: 400.0 mg/kg/injection, schedule: Q04DX003 (ip), vehicle: saline with Tween-80
[12] = dose: 50.0 mg/kg/injection, schedule: Q01DX009 (ip), vehicle: saline with Tween-80
[13] = dose: 50.0 mg/kg/injection, schedule: Q01DX005 (ip), vehicle: Klucel (hydroxypropylcellulose) (HPC)
[14] = dose: 100.0 mg/kg/injection, schedule: Q01DX005 (ip), vehicle: Klucel (hydroxypropylcellulose) (HPC)
[15] = dose: 200.0 mg/kg/injection, schedule: Q01DX005 (ip), vehicle: Klucel (hydroxypropylcellulose) (HPC)
[16] = dose: 60.0 mg/kg/injection, schedule: Q01DX005 (ip), vehicle: saline
[17] = dose: 120.0 mg/kg/injection, schedule: Q01DX005 (ip), vehicle: saline
[18] = dose: 240.0 mg/kg/injection, schedule: Q01DX005 (ip), vehicle: saline
[19] = dose: 25.0 mg/kg/injection, schedule: Q01DX005 (ip), vehicle: saline with Tween-80
[20] = dose: 50.0 mg/kg/injection, schedule: Q01DX009 (ip), vehicle: saline
[21] = dose: 100.0 mg/kg/injection, schedule: Q01DX009 (ip), vehicle: saline
[22] = dose: 200.0 mg/kg/injection, schedule: Q01DX009 (ip), vehicle: saline

Measured: T/C

O=C(O)c1ccc(Cn2ccc(=O)[nH]c2=O)cc1
inactive: dose: 100.0 mg/kg/injection, schedule: Q01DX001 (ip), vehicle: saline with Tween-80 100 % of control | dose: 200.0 mg/kg/injection, schedule: Q01DX001 (ip), vehicle: saline with Tween-80 100 % of control | dose: 400.0 mg/kg/injection, schedule: Q01DX001 (ip), vehicle: saline with Tween-80 100 % of control

O=C1N2CCCSC2=NC1(c1ccccc1)c1ccccc1
inactive: [1] 97 % of control | [2] 98 % of control | [3] 89 % of control

CN1C(=S)NC2C(O)C(O)C(CO)OC21 (centres undefined)
inactive: dose: 50.0 mg/kg/injection, schedule: Q01DX005 (ip), vehicle: saline with Tween-80 97 % of control | [4] 99 % of control | [5] 99 % of control

O=c1cnc(=O)[nH][nH]1
inactive: [1] 103 % of control | [2] 91 % of control | [3] 93 % of control

CC(C)=CC1C(C(=O)OCc2ccc(C)cc2C)C1(C)C (centres undefined)
inactive: [6] 104 % of control | [7] 100 % of control | [8] 109 % of control | [9] 100 % of control | [10] 122 % of control | [11] 100 % of control

CCOc1cccc(/C=N/n2c(-c3ccccc3)nc3ccccc3c2=O)c1O
inactive: [12] 99 % of control | [6] 96 % of control | [8] 105 % of control

CC(=O)Oc1nnc(OC(C)=O)n1-c1ccccc1
inactive: [13] 114 % of control | [14] 111 % of control | [15] 115 % of control

Nc1nc(C2CCCCC2)c(Br)c(=O)[nH]1
inactive: [13] 97 % of control | [14] 92 % of control | [15] 92 % of control

COc1ccc(/C(=N/SC)N(C)C)cc1
inactive: dose: 3.75 mg/kg/injection, schedule: Q01DX005 (ip), vehicle: saline 103 % of control | dose: 7.5 mg/kg/injection, schedule: Q01DX005 (ip), vehicle: saline 111 % of control | dose: 15.0 mg/kg/injection, schedule: Q01DX005 (ip), vehicle: saline 104 % of control

CCCCN(CCO)CC(O)Cn1cnc2c(N)ncnc21 (centres undefined) (tested in a mixture with another compound)
inactive: [16] 94 % of control | [17] 97 % of control | [18] 94 % of control

O=C(CC(O)(C(F)(F)F)C(F)(F)F)c1cc(CC(=O)C(O)(C(F)(F)F)C(F)(F)F)cc(CC(=O)C(O)(C(F)(F)F)C(F)(F)F)c1
inactive: dose: 25.0 mg/kg/injection, schedule: Q01DX009 (ip), vehicle: saline with Tween-80 97 % of control | [12] 103 % of control | [6] 100 % of control | [8] 105 % of control | [10] 115 % of control

CSCc1ccc(C(N)C(=O)O)cc1 (centres undefined)
inactive: dose: 50.0 mg/kg/injection, schedule: Q04DX002 (ip), vehicle: saline with Tween-80 99 % of control | dose: 100.0 mg/kg/injection, schedule: Q04DX002 (ip), vehicle: saline with Tween-80 96 % of control | dose: 200.0 mg/kg/injection, schedule: Q04DX002 (ip), vehicle: saline with Tween-80 99 % of control

C1=CC2(C=CC13OCCO3)OCCO2
inactive: dose: 25.0 mg/kg/injection, schedule: Q04DX003 (ip), vehicle: Klucel (hydroxypropylcellulose) (HPC) 107 % of control | dose: 50.0 mg/kg/injection, schedule: Q04DX003 (ip), vehicle: Klucel (hydroxypropylcellulose) (HPC) 99 % of control | dose: 100.0 mg/kg/injection, schedule: Q04DX003 (ip), vehicle: Klucel (hydroxypropylcellulose) (HPC) 103 % of control

CC1=C/C(=C\C(=O)N2CCCCC2)N=C(N[N+](=O)[O-])N1
inactive: dose: 50.0 mg/kg/injection, schedule: Q01DX009 (ip), vehicle: distilled water + Tween-80 + alcohol 111 % of control | dose: 100.0 mg/kg/injection, schedule: Q01DX009 (ip), vehicle: distilled water + Tween-80 + alcohol 115 % of control | dose: 200.0 mg/kg/injection, schedule: Q01DX009 (ip), vehicle: distilled water + Tween-80 + alcohol 105 % of control

CCCCCCCC(=O)C1C(c2ccc(C(C)C)cc2)CC(=O)C(CCCCCC)C1c1ccc(C(C)C)cc1 (centres undefined)
inactive: dose: 6.25 mg/kg/injection, schedule: Q01DX005 (ip), vehicle: saline with Tween-80 91 % of control | dose: 12.5 mg/kg/injection, schedule: Q01DX005 (ip), vehicle: saline with Tween-80 89 % of control | [19] 99 % of control | [4] 93 % of control | [5] 98 % of control

Nc1ccc2ccc(NS(=O)(=O)N3CCCCC3)cc2c1
inactive: [19] 108 % of control

CCOC(=O)Cc1cn2cc(Cl)cc(Cl)c2n1
inactive: [7] 111 % of control | [9] 100 % of control | [11] 100 % of control

CC(C)(C#N)NCCCNC(C)(C)C#N
inactive: dose: 50.0 mg/kg/injection, schedule: Q01DX005 (ip), vehicle: saline 100 % of control | dose: 100.0 mg/kg/injection, schedule: Q01DX005 (ip), vehicle: saline 97 % of control | dose: 200.0 mg/kg/injection, schedule: Q01DX005 (ip), vehicle: saline 95 % of control

COC1/C=C\OC2(C)Oc3c(C)c(O)c4c(O)c(c5[nH]c(-c6ccccc6)nc5c4c3C2=O)NC(=O)/C(C)=C\C=C\C(C)C(O)C(C)C(O)C(C)C(OC(C)=O)C1C (centres undefined)
inactive: dose: 25.0 mg/kg/injection, schedule: Q01DX009 (ip), vehicle: Klucel (hydroxypropylcellulose) (HPC) 106 % of control | dose: 50.0 mg/kg/injection, schedule: Q01DX009 (ip), vehicle: Klucel (hydroxypropylcellulose) (HPC) 100 % of control | dose: 100.0 mg/kg/injection, schedule: Q01DX009 (ip), vehicle: Klucel (hydroxypropylcellulose) (HPC) 88 % of control

[NH-]C(C[S-])C(=O)O.[NH-]C(C[S-])C(=O)O.[O]=[Mo]1[O][Mo](=[O])[O]1 (centres undefined)
inactive: [20] 99 % of control | [21] 90 % of control | [22] 104 % of control

OCCN1CCN(CC/C=C2/c3ccccc3Sc3ccc(Cl)cc32)CC1
inactive: dose: 0.39 mg/kg/injection, schedule: Q01DX005 (ip), vehicle: saline 100 % of control | dose: 0.78 mg/kg/injection, schedule: Q01DX005 (ip), vehicle: saline 100 % of control | dose: 1.56 mg/kg/injection, schedule: Q01DX005 (ip), vehicle: saline 105 % of control | dose: 6.25 mg/kg/injection, schedule: Q01DX005 (ip), vehicle: saline 123 % of control | dose: 12.5 mg/kg/injection, schedule: Q04DX003 (ip), vehicle: saline 118 % of control | dose: 25.0 mg/kg/injection, schedule: Q04DX003 (ip), vehicle: saline 122 % of control | dose: 33.0 mg/kg/injection, schedule: Q04DX003 (ip), vehicle: saline 90 % of control | dose: 50.0 mg/kg/injection, schedule: Q04DX003 (ip), vehicle: saline 90 % of control | dose: 75.0 mg/kg/injection, schedule: Q04DX003 (ip), vehicle: saline 100 % of control

Cc1ccc(C(=O)C(c2nc3n(c2O)/C(=N/C(=O)Nc2ccc(Cl)cc2)N=N3)c2nc3n(c2O)/C(=N/C(=O)Nc2ccc(Cl)cc2)N=N3)cc1
inactive: [16] 99 % of control | [17] 97 % of control | [18] 87 % of control

N#CC(=N)C(C#N)=Nc1c(O)[nH]c2ccc(Br)cc12
inactive: [20] 100 % of control | [21] 94 % of control | [22] 91 % of control

C[C@]12CCC(=O)C[C@H]1CC[C@@H]1[C@@H]2CC[C@@]2(C)[C@H]1CC[C@]2(C)O
inactive: [6] 90 % of control | [8] 95 % of control | [10] 100 % of control

COc1ccc(OCCCBr)c(Br)c1
inactive: [13] 101 % of control | [14] 97 % of control | [15] 104 % of control

CC(C)(C)C1=CC(=CC=C2C=CN(CCO)C=C2)C=C(C(C)(C)C)C1=O
inactive: dose: 7.5 mg/kg/injection, schedule: Q01DX005 (ip), vehicle: saline with Tween-80 105 % of control | dose: 15.0 mg/kg/injection, schedule: Q01DX005 (ip), vehicle: saline with Tween-80 98 % of control | dose: 30.0 mg/kg/injection, schedule: Q01DX005 (ip), vehicle: saline with Tween-80 104 % of control
